PubChem BioAssay (NCI)
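Interpolation was linear, between the two tested concentrations surrounding the appropriate level; five concentrations were tested over 48 hours in 96-well plates. TGI is the concentration that stops growth completely.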

Tests used:
Assay in all cases: NCI-60 cell line screen, 48 h
SNB-75 CNS = test system: SNB-75 CNS
OVCAR-8 ovarian = test system: OVCAR-8 ovarian
NCI-H23 lung = test system: NCI-H23 lung
SK-OV-3 ovarian = test system: SK-OV-3 ovarian
CAKI-1 renal = test system: CAKI-1 renal
UACC-62 melanoma = test system: UACC-62 melanoma
EKVX NSCLC = test system: EKVX NSCLC
RXF 393 renal = test system: RXF 393 renal
LOX IMVI melanoma = test system: LOX IMVI melanoma
ACHN renal = test system: ACHN renal
HL-60(TB) leukemia = test system: HL-60(TB) leukemia
HOP-92 NSCLC = test system: HOP-92 NSCLC
U251 CNS = test system: U251 CNS
MDA-MB-231 breast = test system: MDA-MB-231 breast
OVCAR-4 ovarian = test system: OVCAR-4 ovarian

| SMILES | TGI (SNB-75 CNS) [µM] | TGI (OVCAR-8 ovarian) [µM] | TGI (NCI-H23 lung) [µM] | TGI (SK-OV-3 ovarian) [µM] | TGI (CAKI-1 renal) [µM] | TGI (UACC-62 melanoma) [µM] | TGI (EKVX NSCLC) [µM] | TGI (RXF 393 renal) [µM] | TGI (LOX IMVI melanoma) [µM] | TGI (ACHN renal) [µM] | TGI (HL-60(TB) leukemia) [µM] | TGI (HOP-92 NSCLC) [µM] | TGI (U251 CNS) [µM] | TGI (MDA-MB-231 breast) [µM] | TGI (OVCAR-4 ovarian) [µM] |
| --- | --- | --- | --- | --- | --- | --- | --- | --- | --- | --- | --- | --- | --- | --- | --- |
| CN(CCO)c1nc(=O)c2c(n1C1OC(CO)C(O)C(O)C1O)CCCC2 (centres undefined) | > 100 | > 100 | > 100 | > 100 | > 100 | > 100 | > 100 | > 100 | > 100 | > 100 | > 100 | > 100 | > 100 |  |  |
| O=c1[nH]nc(-c2ccccc2)n1-n1cccc1 | > 100 | > 100 |  | > 100 | > 100 | > 100 | > 100 | > 100 | > 100 | > 100 |  |  | > 100 | > 100 | > 100 |
| O=C(OCC1CC(C2(O)CCCCC2)C(=O)O1)c1ccccc1 (centres undefined) | > 100 | > 100 | > 100 | > 100 | > 100 | > 100 | > 100 | > 100 | > 100 | > 100 |  | > 100 | > 100 | > 100 | > 100 |
| CC(C)OP(=O)(OC(C)C)/C(=N/Nc1ccc([N+](=O)[O-])cc1)NNC(=O)c1ccccc1 | > 100 | > 100 | 79.3 |  | > 100 | 36.5 | > 100 |  | 70.8 | > 100 | 68.9 | 61.3 | 76.7 |  | 99.2 |
| C[C@H]1[C@H](C)CC[C@]2(C(=O)O)CCC3(COC(=O)/C=C/c4ccc(O)cc4)C(=CCC4[C@@]5(C)CC[C@H](O)C(C)(C)C5CC[C@]43C)[C@H]12 (some centres undefined) | 23.8 | 26.5 |  | 6.99 | 22.1 | 23 | 24.6 | 23.5 | 18.3 | 13.1 | 53.1 |  | 9.92 |  | 29.7 |
| O=C(/C=C/c1ccc(Cl)cc1)c1nc2ccccc2[nH]1 | 43.8 | > 100 | > 100 | > 100 | 10.1 | > 100 | 83.3 |  | 32.6 | > 100 |  | > 100 |  | > 100 | 71.3 |
| CCN(CC)CCC(=O)Nc1ccc2sc3ccccc3c(=O)c2n1 | 21.6 | 62.4 | 43.8 | 36.7 | 28.8 | 35 | > 100 |  | 38.9 | 38.1 | 30.9 | 0.0992 | 28.8 |  | > 100 |
| CC(/C=C1\CCC(CN(C)C)C1=O)c1cccc(Br)c1 (centres undefined) |  | 36.8 | 38 | > 100 | 21.1 | 32.4 | 42 | 26.5 |  | 18 | 10.8 | 33.5 | 32.4 |  | 32.3 |
| O=C(O)c1ccc(Nc2nc3ccc(C(F)(F)F)cc3nc2-c2ccccc2)cc1 | > 100 | > 100 | > 100 |  | > 100 | 35.8 | > 100 | > 100 | > 100 | > 100 | 66.3 |  | > 100 |  |  |
| COc1ccccc1NC(=O)C(=O)C(c1cnc2ccc([N+](=O)[O-])cc2n1)[N+](=O)[O-] (centres undefined) | > 100 | > 100 | > 100 | > 100 | > 100 | > 100 | > 100 | > 100 | > 100 | > 100 | > 100 | > 100 | > 100 |  | > 100 |
| O=C(O)CCC1(CCC(=O)O)CCCCCCCCC(CCC(=O)O)(CCC(=O)O)C(=O)C1=O | > 100 | > 100 | > 100 | > 100 | > 100 | > 100 | > 100 |  | > 100 | > 100 | > 100 | > 100 | > 100 |  | > 100 |
| CC(C)(CN1CCCCC1)C(=O)CC(SCCS(=O)(=O)O)c1ccccc1 (centres undefined) | 54.9 | 65 |  | > 100 | 34.9 | 29.5 | 50.5 | 35 |  | 52.9 |  | 25.3 | 53.2 | 32.4 | 49.4 |
| N#Cc1c2c(c(Nc3cccc(C(F)(F)F)c3)n3c1nc1ccccc13)CCCC2 | 57.3 | 34.1 | 89.2 | 48 | 82.4 |  | 62.4 | 86.2 | 35.8 | > 100 |  | 22.5 | 23.7 | 58.9 | > 100 |
| CCOC(=O)C(CCSC)(CCSC)C(=O)OCC | > 100 | > 100 | > 100 | 72.2 | > 100 | 49.1 | > 100 | > 100 | > 100 | > 100 |  |  | > 100 | > 100 | > 100 |
| COc1cc2c(c(OC)c1)C(=O)C(=O)C(CC1(C)OCCCO1)=C2 | 33.9 | 28.6 | 24.3 | 30.2 | 13.1 | 20.2 | 29.6 | 8.71 | 12.9 | 17.9 | 4.28 | 4.41 | 28.7 |  | 18.9 |
| Cc1cc2nc3c(C#N)c4c(c(Cl)n3c2cc1C)CCC4 | > 100 | 37.4 | 62.6 | > 100 | 35.9 |  | > 100 | 32.1 | 32 | 55.9 |  | 95.5 | 30.4 | 35.1 | > 100 |
| CCCC1(N2C(=O)c3ccc4c5c(ccc(c35)C2=O)N(C2(CCC)CCCCC2)C4=O)CCCCC1 |  | > 100 | > 100 | > 100 | > 100 | > 100 |  | > 100 |  | > 100 |  | > 100 | > 100 | > 100 | > 100 |
